What was measured:
FLAG-Trx2 = molecular target: T1, FLAG-Trx2 (Saccharomyces cerevisiae, UniProt P22803); experiment: cross-linking in yeast cells, anti-FLAG immunoblot; assay type: cell-based; details: covalent; 1 h
T1 sequence (P22803 2-104): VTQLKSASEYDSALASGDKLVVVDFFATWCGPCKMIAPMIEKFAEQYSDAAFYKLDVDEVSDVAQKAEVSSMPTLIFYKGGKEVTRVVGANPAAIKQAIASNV

FLAG-Tsa1 = molecular target: T2, FLAG-Tsa1 (Saccharomyces cerevisiae, UniProt P34760); experiment: cross-linking in yeast cells, anti-FLAG immunoblot; assay type: cell-based; details: covalent; 1 h
T2 sequence (P34760 2-196): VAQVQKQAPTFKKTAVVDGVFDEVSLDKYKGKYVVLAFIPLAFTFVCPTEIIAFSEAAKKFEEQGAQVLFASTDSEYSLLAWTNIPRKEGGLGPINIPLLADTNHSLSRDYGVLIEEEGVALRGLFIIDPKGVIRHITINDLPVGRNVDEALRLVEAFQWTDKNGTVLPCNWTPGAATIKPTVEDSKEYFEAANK

SMILES	cross-linking in yeast cells, anti-FLAG immunoblot (FLAG-Trx2)	cross-linking in yeast cells, anti-FLAG immunoblot (FLAG-Tsa1)
CCOC(=O)C#CC(=O)OCC [diethyl acetylenedicarboxylate]	each of these bifunctional electrophiles promotes cross-linking of Trx2 and Tsa1 in yeast	each of these bifunctional electrophiles promotes cross-linking of Trx2 and Tsa1 in yeast
C1OC1C1CO1 (stereo not shown) [1,2,3,4-diepoxybutane]	each of these bifunctional electrophiles promotes cross-linking of Trx2 and Tsa1 in yeast	each of these bifunctional electrophiles promotes cross-linking of Trx2 and Tsa1 in yeast

From publication PMC3637938 (Chemical research in toxicology, 2013)
